# Measurements published in patent publication US20170246144A1, “METHOD OF PREVENTING OR TREATING SPINOCEREBELLAR ATAXIA BY ADMINISTRATING SILIBININ” (National Taiwan Normal University, priority 2016, published 2017).
# Experiments:
# Type in all cases: cell-based, Human
# SH-SY5Y cells [1] = experiment: JC-1 flow cytometry of mitochondria membrane potential (MMP)
# Description: FIGS. 7A and 7B show the effects of SB on mitochondria membrane potential (MMP) in SH-SY5Y cells treated with MSG measured by JC-1 staining with a flow cytometry, wherein the control group (Ctrl) was untreated SH-SY5Y cells or the cells were treated with 100 mM MSG, 100 mM MSG+15 μM SB, 100 mM MSG+10 μM MK801 (MK) or 5 μM CCCP (disruptor of electron transport chain) for 12 hours. […] The results were shown as mean±SEM, n=3, *p<0.05, comparing to the MSG treatment group.
# In the present embodiment, flow cytometry analysis was used to investigate whether silibinin can prevent the reduction of mitochondria membrane potential induced by glutamate in SH-SY5Y cells.
# SH-SY5Y cells were seeded in 6 centimeter dish (1×10^6 cells/plate) for 24 hours, and then were pre-treated with 15 μM silibinin or 10 μM MK-801 for 1 hour followed by the treatment of 100 mM MSG for 12 hours. 5 μM carbonyl cyanide m-chlorophenylhydrazone (CCCP) was added to the positive control group to induce the depolarization of mitochondria membrane potential.
# The treated cells were washed, centrifuged and collected, followed by PBS wash and JC-1 dye staining for 30 minutes. The stained cells were re-suspended using phosphate buffer solution and analyzed by a flow cytometry to obtain a 2-dimensional scatter plot. 10,000 cells were recorded for each experiment.
# SH-SY5Y cells [2] = experiment: Chemiluminescence (luminol) analysis of ROS induced by MSG
# Description: FIG. 6A: The ROS productions in 1×10^6 SH-SY5Y cells were measured by chemiluminescence (CL) analysis and luminol measurement, wherein the control group (Ctrl) was untreated SH-SY5Y cells or the cells were treated with 100 mM MSG, 100 mM MSG+15 μM SB or 100 mM MSG+10 μM MK801 (MK) for 24 hours.
# It is known that the cyto-toxicity induced by glutamate is associated with mitochondria dysfunction and the increased production of ROS in neuron. In this embodiment, chemiluminescence analysis was performed to measure the level of ROS in order to understand whether silibinin can inhibit the accumulation of ROS associated with glutamatergic excitotoxicity. […] The emission spectrum was blue light which can be monitored by chemiluminescence detector.
# SH-SY5Y cells were seeded in dish (1×10^6 cells/plate) for 24 hours, and then were pre-treated with 15 μM silibinin or 10 μM MK-801 for 1 hour followed by the treatment of 100 mM glutamate for 24 hours. The cells were then washed and suspended in 60 μL RIPA on ice bath followed by stirring and centrifugation at 13,000 rpm for […] at 4° C. The obtained protein sample (200 μL, 20 μg) was mixed with 0.5 mL of 0.2 mM luminol (Sigma). After 5 minutes, chemiluminescence analysis system (CLD-110, Tohoku Electronic Inc. Co. Japan) was performed to determine its chemiluminescence.
# SH-SY5Y cells [3] = experiment: Annexin V-FITC/PI flow cytometry, apoptosis induced by MSG; details: 10 μM, 100 mM MSG, 24 hours
# Description: 1×10^6 SH-SY5Y cells were treated with 100 mM MSG and 15 μM SB or 10 μM MK801 (MK) for 24 hours. Cells were stained with Annexin-V/PI and the apoptosis was measured with a flow cytometry.
# In order to detect the effects of silibinin in inhibiting the apoptosis induced by glutamate in SH-SY5Y cells. The cells were measured by flow cytometry using Annexin V-FITC/propidium iodide (PI) double-labeling method.
# SH-SY5Y cells were seeded in dish and were treated with 100 mM MSG in combination of 15 μM silibinin or 10 μM MK801 for 24 hours. The cells were then trypsinized and collected by centrifugation at 2,000 rpm for […] followed by double-staining with Annexin V-FITC and PI. Stained cells were analyzed with a flow cytometry (FACS Sorter, Becton, Dickinson and Company). 10,000 cells were recorded in each experiment.
Structure (SMILES),"MMP retained (SH-SY5Y cells [1]; 5 μM CCCP, positive control, no MSG) [%]",MMP compared to Ctrl (SH-SY5Y cells [1]; 10 μM + 100 mM MSG) [%],"extracellular ROS (SH-SY5Y cells [2]; 10 μM, 100 mM MSG, 24 hours)","inhibition at 10 µM (SH-SY5Y cells [2]; Homo sapiens, SH-SY5Y, 24 h, read-out: inhibition of intracellular ROS) [%]",apoptosis (apoptotic cells) (SH-SY5Y cells [3]) [%]
"N#CC(C#N)=NNc1cccc(Cl)c1 [CCCP, carbonyl cyanide m-chlorophenylhydrazone]",18±10,–,–,–,–
C[C@]12N[C@H](Cc3ccccc31)c1ccccc12 [MK801],–,90±5,unchanged,80,9.73
